Source: patent US20260234157A1, “COMPOUND AND METHOD FOR TARGETED DEGRADATION OF ANDROGEN RECEPTOR” (Gan & Lee Pharmaceuticals Co., Ltd., priority 2023, published 2026)
Where a chain is given by its changes, count along the chain named. Read-outs that look alike come from different tables or passages of the source.

Assays:
Type in all cases: cell-based
AR protein [1] = molecular target: T1, AR protein (Homo sapiens, UniProt P10275, T878A); experiment: Degradation of AR protein in LNCaP cells (Western blot); conditions: for inhibition at 0.01 µM: read-out: Degradation rates of the AR protein in LNCaP cells, 10 nM (%); for inhibition at 0.1 µM: read-out: Degradation rates of the AR protein in LNCaP cells, 100 nM (%)
T1 construct: degradation activity of the compounds disclosed in the present disclosure on AR protein in LNCaP cells; host or cells: LNCaP FGC
T1 sequence (P10275 1-920 T878A): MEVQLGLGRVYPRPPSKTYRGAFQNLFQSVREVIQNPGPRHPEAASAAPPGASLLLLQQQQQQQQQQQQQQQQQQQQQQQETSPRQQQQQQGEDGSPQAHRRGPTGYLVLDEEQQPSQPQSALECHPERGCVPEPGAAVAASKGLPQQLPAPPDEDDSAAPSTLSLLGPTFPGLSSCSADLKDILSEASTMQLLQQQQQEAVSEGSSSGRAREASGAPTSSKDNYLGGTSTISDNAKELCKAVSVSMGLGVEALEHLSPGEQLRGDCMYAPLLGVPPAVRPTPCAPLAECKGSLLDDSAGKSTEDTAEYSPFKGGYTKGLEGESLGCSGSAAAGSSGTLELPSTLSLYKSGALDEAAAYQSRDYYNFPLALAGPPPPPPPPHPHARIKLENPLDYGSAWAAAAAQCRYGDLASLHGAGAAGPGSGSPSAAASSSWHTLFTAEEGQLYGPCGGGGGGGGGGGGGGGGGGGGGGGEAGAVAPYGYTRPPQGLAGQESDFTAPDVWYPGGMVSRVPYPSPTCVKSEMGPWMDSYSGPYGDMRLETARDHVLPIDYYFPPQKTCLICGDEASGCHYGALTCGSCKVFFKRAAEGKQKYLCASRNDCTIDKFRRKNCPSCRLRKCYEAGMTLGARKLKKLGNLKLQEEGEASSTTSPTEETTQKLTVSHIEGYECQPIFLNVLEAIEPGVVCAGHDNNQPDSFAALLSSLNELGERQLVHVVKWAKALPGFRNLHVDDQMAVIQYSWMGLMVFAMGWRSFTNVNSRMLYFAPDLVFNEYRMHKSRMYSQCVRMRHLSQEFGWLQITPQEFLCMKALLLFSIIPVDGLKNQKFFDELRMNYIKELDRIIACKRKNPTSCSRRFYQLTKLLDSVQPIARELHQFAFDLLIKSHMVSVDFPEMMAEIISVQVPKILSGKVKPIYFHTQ
Procedure, shortened: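 AR assessed by SDS-PAGE/Western blot with infrared imaging; band greyscale normalised to GAPDH gave percent degradation.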

AR protein [2] = molecular target: T2, AR protein (Homo sapiens, UniProt P10275); experiment: Degradation of AR protein in VCaP cells (Western blot); conditions: 8 hours; for inhibition at 0.01 µM: compound at 10 nM, read-out: Degradation rate of the AR protein in VCaP cells, 10 nM (%); for inhibition at 0.1 µM: compound at 100 nM, read-out: Degradation rate of the AR protein in VCaP cells, 100 nM (%)
T2 construct: degradation activity of the compounds disclosed in the present disclosure on AR protein in VCaP cells; host or cells: VCaP
T2 sequence (P10275 1-920): T1 sequence (P10275 1-920 T878A) with A878T
Procedure, shortened: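 VCaP cells treated with compound alongside solvent controls for 8 h, then lysed in RIPA and protein quantified by BCA. AR detected by SDS-PAGE/Western blot with infrared imaging. Degradation rate calculated from band grayscale, with GAPDH as internal reference.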

LNCaP FGC cells = experiment: Inhibition of proliferation of LNCaP cells (WST-8)
Description: The cells were cultured in a cell culture incubator with 5% CO2 at 37° C. overnight. […] On the sixth day, 96 well plates were taken out, and 20 μL of WST-8 (Beytime, C0040) reagent was added to each well.

VCaP cells = experiment: Inhibition of proliferation of VCaP cells (WST-8); conditions: Homo sapiens, read-out: IC50 for inhibiting the proliferation of VCaP cells
Procedure, shortened: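 VCaP FGC cells, 15000 per well in DMEM with 10% FBS, were cultured at 37° C, 5% CO2. On day nine, WST-8 reagent was added to read proliferation.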

[3] = LNCaP cells, compound 10 nM, 8 hours, Western blot grayscale, GAPDH internal reference
[4] = LNCaP cells, compound 100 nM, 8 hours, Western blot grayscale, GAPDH internal reference
[5] = Homo sapiens, LNCaP, 96 h, LNCaP FGC cells, 96 hours, WST-8 absorbance at 450 nm, read-out: IC50 for inhibiting the proliferation of LNCaP cells
[6] = VCaP cells, 168 hours, WST-8 absorbance at 450 nm

## COc1cc(O[C@H]2C(C)(C)[C@H](NC(=O)c3ccc(N4CCC(C)(CN5CC6(CCc7cc8c(cc7O6)C(=O)N(C6CCC(=O)NC6=O)C8=O)C5)CC4)cc3)C2(C)C)ccc1C#N (stereo partly drawn) [Compound 291]
AR protein [1]; [3]
  inhibition at 0.01 µM: 9%
AR protein [1]; [4]
  inhibition at 0.1 µM: 57%
AR protein [2]
  inhibition at 0.01 µM: 21%
  inhibition at 0.1 µM: 53%
LNCaP FGC cells; [5]
  IC50: 2880 nM
VCaP cells; [6]
  IC50: 47 nM

## COC1(CN2CCC3(CCc4ccc5c(c4O3)CN(C3CCC(=O)NC3=O)C5=O)CC2)CCN(c2ccc(C(=O)N[C@H]3CC[C@H](Oc4ccc(C#N)c(Cl)c4)CC3)nn2)CC1 (stereo partly drawn) [Compound 167]
AR protein [1]; [3]
  inhibition at 0.01 µM: 45%
AR protein [1]; [4]
  inhibition at 0.1 µM: 18%
AR protein [2]
  inhibition at 0.01 µM: 33%
  inhibition at 0.1 µM: 67%
LNCaP FGC cells; LNCaP FGC cells, 96 hours, WST-8 absorbance at 450 nm, read-out: IC50 for inhibiting the proliferation of LNCaP cells
  IC50: 80100 nM
VCaP cells; [6]
  IC50: > 90000 nM

## N#Cc1ccc(O[C@H]2CC[C@H](NC(=O)c3ccc(N4CCC5(CCC(N6CCC7(CCc8cc9c(cc8O7)C(=O)N(C7CCC(=O)NC7=O)C9=O)CC6)CC5)CC4)nn3)CC2)cc1Cl (stereo partly drawn) [Compound 30]
AR protein [1]; [3]
  inhibition at 0.01 µM: 28%
AR protein [1]; [4]
  inhibition at 0.1 µM: 62%
AR protein [2]
  inhibition at 0.01 µM: 39%
  inhibition at 0.1 µM: 64%
LNCaP FGC cells; [5]
  IC50: 1900 nM
VCaP cells; [6]
  IC50: 850 nM

## N#Cc1ccc(O[C@H]2CC[C@H](NC(=O)c3ccc(N4CC(N5CC6(CCc7cc8c(cc7O6)C(=O)N(C6CCC(=O)NC6=O)C8=O)C5)C4)nn3)CC2)cc1Cl (stereo partly drawn) [Compound 5]
AR protein [1]; LNCaP, 8 h
  inhibition at 0.01 µM: 51%
  inhibition at 0.1 µM: 35%
AR protein [2]
  inhibition at 0.01 µM: 41%
  inhibition at 0.1 µM: 51%
LNCaP FGC cells; Homo sapiens, LNCaP, 96 h, read-out: IC50 for inhibiting the proliferation of LNCaP cells, LNCaP FGC cells, 96 hours, WST-8 absorbance at 450 nm
  IC50: 710 nM
VCaP cells; VCaP, 168 h
  IC50: 4500 nM

## COc1cc(O[C@H]2C(C)(C)[C@H](NC(=O)c3ccc(N4CCC(C)(CN5CCC6(CCc7cc8c(cc7O6)C(=O)N(C6CCC(=O)NC6=O)C8=O)CC5)CC4)cc3)C2(C)C)ccc1C#N (stereo partly drawn) [Compound 287]
AR protein [1]; [3]
  inhibition at 0.01 µM: 28%
AR protein [1]; [4]
  inhibition at 0.1 µM: 51%
AR protein [2]
  inhibition at 0.01 µM: -31%
  inhibition at 0.1 µM: 13%
LNCaP FGC cells; [5]
  IC50: 70500 nM
VCaP cells; [6]
  IC50: 310 nM

## COc1cc(O[C@H]2C(C)(C)[C@H](NC(=O)c3ccc(N4CCC(F)(CN5CCC6(CC5)COc5cc7c(cc5C6)C(=O)N(C5CCC(=O)NC5=O)C7=O)CC4)cc3)C2(C)C)ccc1C#N (stereo partly drawn) [Compound 271]
AR protein [1]; [3]
  inhibition at 0.01 µM: -3%
AR protein [1]; [4]
  inhibition at 0.1 µM: 10%
AR protein [2]
  inhibition at 0.01 µM: -47%
  inhibition at 0.1 µM: -5%
LNCaP FGC cells; [5]
  IC50: 37900 nM
VCaP cells; [6]
  IC50: 100 nM

## COc1cc(O[C@H]2C(C)(C)[C@H](NC(=O)c3ccc(N4CCC(F)(CN5CC6(CCc7cc8c(cc7O6)C(=O)N(C6CCC(=O)NC6=O)C8=O)C5)CC4)cc3)C2(C)C)ccc1C#N (stereo partly drawn) [Compound 269]
AR protein [1]; [3]
  inhibition at 0.01 µM: 35%
AR protein [1]; [4]
  inhibition at 0.1 µM: 61%
AR protein [2]
  inhibition at 0.01 µM: 7%
  inhibition at 0.1 µM: 63%
LNCaP FGC cells; [5]
  IC50: 11800 nM
VCaP cells; [6]
  IC50: 270 nM

## N#Cc1ccc(O[C@H]2CC[C@H](NC(=O)c3ccc(N4CCC5(CCC(N6CCC7(CCc8cc9c(cc8O7)C(=O)N(C7CCC(=O)NC7=O)C9=O)CC6)CC5)C4)nn3)CC2)cc1Cl (stereo partly drawn) [Compound 34]
AR protein [1]; [3]
  inhibition at 0.01 µM: 57%
AR protein [1]; [4]
  inhibition at 0.1 µM: 70%
AR protein [2]
  inhibition at 0.01 µM: 39%
  inhibition at 0.1 µM: 51%
LNCaP FGC cells; [5]
  IC50: 1120 nM
VCaP cells; [6]
  IC50: 4200 nM

## N#Cc1ccc(O[C@H]2CC[C@H](NC(=O)c3ccc(N4CC(N5CCC6(CC5)COc5c6ccc6c5C(=O)N(C5CCC(=O)NC5=O)C6=O)C4)nn3)CC2)cc1Cl (stereo partly drawn) [Compound 142]
AR protein [1]; [3]
  inhibition at 0.01 µM: 29%
AR protein [1]; [4]
  inhibition at 0.1 µM: 52%
AR protein [2]
  inhibition at 0.01 µM: 26%
  inhibition at 0.1 µM: 74%
LNCaP FGC cells; [5]
  IC50: > 90000 nM
VCaP cells; [6]
  IC50: 15100 nM

## N#Cc1ccc(O[C@H]2CC[C@H](NC(=O)c3ccc(N4CCC(F)(CN5CCC6(CC5)COc5ccc7c(c5C6)C(=O)N(C5CCC(=O)NC5=O)C7)CC4)nn3)CC2)cc1Cl (stereo partly drawn) [Compound 147]
AR protein [1]; [3]
  inhibition at 0.01 µM: -3%
AR protein [1]; [4]
  inhibition at 0.1 µM: 14%
AR protein [2]
  inhibition at 0.01 µM: 24%
  inhibition at 0.1 µM: 47%
LNCaP FGC cells; [5]
  IC50: 17000 nM
VCaP cells; [6]
  IC50: 2990 nM

## N#Cc1ccc(O[C@H]2CC[C@H](NC(=O)c3ccc(N4CCC(O)(CN5CCC6(CC5)COc5c6ccc6c5C(=O)N(C5CCC(=O)NC5=O)C6=O)CC4)nn3)CC2)cc1C(F)(F)F (stereo partly drawn) [Compound 214]
AR protein [1]; [3]
  inhibition at 0.01 µM: 40%
AR protein [1]; [4]
  inhibition at 0.1 µM: 68%
AR protein [2]
  inhibition at 0.01 µM: 7%
  inhibition at 0.1 µM: 63%
LNCaP FGC cells; [5]
  IC50: 3780 nM
VCaP cells; [6]
  IC50: 48 nM

## COc1cc(OC2CCC(NC(=O)c3cnc(N4CCC(C)(CN5CCC6(CC5)COc5c6ccc6c5C(=O)N(C5CCC(=O)NC5=O)C6=O)CC4)nc3)CC2)ccc1C#N (stereo not drawn) [Compound 246]
AR protein [1]; [3]
  inhibition at 0.01 µM: 17%
AR protein [1]; [4]
  inhibition at 0.1 µM: 43%
AR protein [2]
  inhibition at 0.01 µM: -19%
  inhibition at 0.1 µM: 61%
LNCaP FGC cells; [5]
  IC50: 870 nM
VCaP cells; [6]
  IC50: 120 nM

## COc1cc(O[C@H]2CC[C@H](NC(=O)c3ccc(N4CCC(O)(CN5CCC6(CC5)COc5c6ccc6c5C(=O)N(C5CCC(=O)NC5=O)C6=O)CC4)nn3)CC2)ccc1C#N (stereo partly drawn) [Compound 215]
AR protein [1]; [3]
  inhibition at 0.01 µM: 86%
AR protein [1]; [4]
  inhibition at 0.1 µM: 91%
AR protein [2]
  inhibition at 0.01 µM: 63%
  inhibition at 0.1 µM: 82%
LNCaP FGC cells; [5]
  IC50: 220 nM
VCaP cells; [6]
  IC50: 500 nM

## COC1(CN2CC3(CCc4ccc5c(c4O3)C(=O)N(C3CCC(=O)NC3=O)C5)C2)CCN(c2ccc(C(=O)N[C@H]3CC[C@H](Oc4ccc(C#N)c(Cl)c4)CC3)nn2)CC1 (stereo partly drawn) [Compound 138]
AR protein [1]; [3]
  inhibition at 0.01 µM: -9%
AR protein [1]; [4]
  inhibition at 0.1 µM: -1%
AR protein [2]
  inhibition at 0.01 µM: -28%
  inhibition at 0.1 µM: 7%
LNCaP FGC cells; [5]
  IC50: 71500 nM
VCaP cells; [6]
  IC50: > 90000 nM
